According to the supplement of paper PMC10307832:

Key:
Assay in all cases: relative viability (nuclei count vs DMSO), 5 days (fraction); higher = more cells survive
Venetoclax + Decitabine = compound: CC1(C)CCC(CN2CCN(c3ccc(C(=O)NS(=O)(=O)c4ccc(NCC5CCOCC5)c([N+](=O)[O-])c4)c(Oc4cnc5[nH]ccc5c4)c3)CC2)=C(c2ccc(Cl)cc2)C1 [Venetoclax] + Nc1ncn([C@H]2C[C@H](O)[C@@H](CO)O2)c(=O)n1 [Decitabine] (partner 2 µM)
Outline: (§1)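 Lung cancer cell lines were pin-tool dosed in 1536-well plates on the day after seeding, with either a lone drug or a fixed anchor-drug dose plus five library-drug doses (not always all listed) in √10 steps. Nuclei were counted on 4× images after 5 days. Relative viability is the ratio of treated-well to vehicle-well nuclei counts, with each value a median of duplicate plates.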

Selumetinib + Linsitinib = compound: Cn1cnc2c(F)c(Nc3ccc(Br)cc3Cl)c(C(=O)NOCCO)cc21 [Selumetinib] + C[C@]1(O)C[C@@H](c2nc(-c3ccc4ccc(-c5ccccc5)nc4c3)c3c(N)nccn32)C1 [Linsitinib] (partner 1 µM)
Outline: as §1

Selumetinib + Vorinostat = compound: Cn1cnc2c(F)c(Nc3ccc(Br)cc3Cl)c(C(=O)NOCCO)cc21 [Selumetinib] + O=C(CCCCCCC(=O)Nc1ccccc1)NO [Vorinostat] (partner 1 µM)
Outline: as §1

Selumetinib + Olaparib = compound: Cn1cnc2c(F)c(Nc3ccc(Br)cc3Cl)c(C(=O)NOCCO)cc21 [Selumetinib] + O=C(c1cc(Cc2n[nH]c(=O)c3ccccc23)ccc1F)N1CCN(C(=O)C2CC2)CC1 [Olaparib] (partner 8 µM)
Outline: as §1

## UMC-11
Venetoclax + Decitabine; first compound 0.01 µM
  relative viability: 0.705
Venetoclax + Decitabine; first compound 0.03162 µM
  relative viability: 0.595
Venetoclax + Decitabine; first compound 0.1 µM
  relative viability: 0.48
Venetoclax + Decitabine; first compound 0.3162 µM
  relative viability: 0.686
Venetoclax + Decitabine; first compound 1 µM
  relative viability: 0.608
Selumetinib + Linsitinib; first compound 0.02 µM
  relative viability: 0.965
Selumetinib + Linsitinib; first compound 0.06325 µM
  relative viability: 1.08
Selumetinib + Linsitinib; first compound 0.2 µM
  relative viability: 0.972
Selumetinib + Linsitinib; first compound 0.6325 µM
  relative viability: 0.984
Selumetinib + Vorinostat; first compound 0.02 µM
  relative viability: 0.387
Selumetinib + Vorinostat; first compound 0.06325 µM
  relative viability: 0.285
Selumetinib + Vorinostat; first compound 0.2 µM
  relative viability: 0.348
Selumetinib + Vorinostat; first compound 0.6325 µM
  relative viability: 0.368
Selumetinib + Olaparib; first compound 0.02 µM
  relative viability: 0.32
Selumetinib + Olaparib; first compound 0.06325 µM
  relative viability: 0.33
Selumetinib + Olaparib; first compound 0.2 µM
  relative viability: 0.384
Selumetinib + Olaparib; first compound 0.6325 µM
  relative viability: 0.914
